Experimental data: patent US11549198B2, “Method of producing non-woven protein fibers” (Rowan University, priority 2017, dated 2023)

Test: Drug release study of model drugs from corn zein fibers and films in phosphate buffer
Type: physicochemical
Conditions: for n value from the Korsmeyer-Peppas equation of model drug release profile / release percentage at the 15-minute time point: 20 mM phosphate buffer (pH 7.0); for n value from the Korsmeyer-Peppas equation of model drug release profile: up to 96 hours; for release percentage at the 15-minute time point: fibers
Procedure: Approximately 0.05 g of film or fiber mesh was placed in 50 mL of 20 mM phosphate buffer (pH 7.0). Drug release was done in triplicate under conditions of dynamic flow. At the appropriate time points (15 minutes, 30 minutes, 1 hour, 2 hours, 3 hours, 4 hours, 5 hours, 24 hours, 48 hours, 96 hours), aliquots of solution were removed from the samples. The absorbance of each aliquot was measured at the appropriate wavelength for the corresponding model drug using a SpectraMax i3x Plate Reader (Molecular Devices LLC, Sunnyvale, Calif., USA). Absorbance was related to concentration and the values from the three aliquots were averaged and graphed as a function of time. Upon completion of the study, fibers were extracted from solution via suction filtration and dried overnight. Release profiles were then fit with the Krosmeyer-Peppas release model shown in equation 1: […]
To further investigate the potential effectiveness of the supramolecular systems for transdermal drug delivery, drug release of the model drugs incorporated in either films or fibers was simulated in 0.1% w/v 20 mM phosphate buffer (pH 7.0) for different times. Shown in FIGS. 16A-16B are the normalized release profiles for the fiber and film models, respectively. Data points were normalized based on the amount of drug released at 96 hours. No significant drug release was observed above 96 hours for all samples. […] Alcian blue is a very large molecule (MW 1.3 kDa), so it is reasonable to assume its bulkiness prevents it from being efficiently integrated into the zein structure. […] This can be attributed to the nature of the method used to fabricate the films. The corn zein was exposed to formic acid for a longer period of time during film synthesis than during fiber generation. During this time, the formic acid may have severed some of the hydrogen bonds of the corn zein structure, allowing the integration of the model drug molecules.

CCN(CC)c1ccc2c(-c3ccccc3C(=O)O)c3ccc(=[N+](CC)CC)cc-3oc2c1.[Cl-] [Rhodamine B, rhodamine B]
n value from the Korsmeyer-Peppas equation of model drug release profile (Fiber): 0.337
n value from the Korsmeyer-Peppas equation of model drug release profile (Film): 0.203

CN(C)C(SCc1ccc2c(c1)-c1nc-2nc2[n-]c(nc3nc(nc4[n-]c(n1)c1ccc(CSC(N(C)C)=[N+](C)C)cc41)-c1ccc(CSC(N(C)C)=[N+](C)C)cc1-3)c1ccc(CSC(N(C)C)=[N+](C)C)cc21)=[N+](C)C.[Cl-].[Cl-].[Cl-].[Cl-].[Cu+2] [Alcian Blue, alcian blue 8GX]
n value from the Korsmeyer-Peppas equation of model drug release profile (Fiber): 0.1104
n value from the Korsmeyer-Peppas equation of model drug release profile (Film): 0.1507
release percentage at the 15-minute time point: considerably high release percentage

CO[C@H]1/C=C/O[C@@]2(C)Oc3c(C)c(O)c4c(O)c(c(/C=N/N5CCN(C)CC5)c(O)c4c3C2=O)NC(=O)/C(C)=C\C=C\[C@H](C)[C@H](O)[C@@H](C)[C@@H](O)[C@@H](C)[C@H](OC(C)=O)[C@@H]1C [Rifampin, rifampin]
n value from the Korsmeyer-Peppas equation of model drug release profile (Fiber): 0.392
n value from the Korsmeyer-Peppas equation of model drug release profile (Film): 0.284

O=C1/C(=C2\Nc3ccc(S(=O)(=O)[O-])cc3C2=O)Nc2ccc(S(=O)(=O)[O-])cc21.[Na+].[Na+] [Indigo Carmine, indigo carmine]
n value from the Korsmeyer-Peppas equation of model drug release profile (Fiber): 0.1318
n value from the Korsmeyer-Peppas equation of model drug release profile (Film): 0.430
release percentage at the 15-minute time point: considerably high release percentage
release profile at the earlier points (films, in contrast to the fibers): dramatic drop

CN(C)c1ccc(C(=C2C=CC(=[N+](C)C)C=C2)c2ccc(N(C)C)cc2)cc1 [Crystal Violet, Crystal violet]
n value from the Korsmeyer-Peppas equation of model drug release profile (Fiber): 0.353
n value from the Korsmeyer-Peppas equation of model drug release profile (Film): 0.1184
